Reference: patent US12533339B2, “Small molecule antiviral drug treatment for human papillomavirus infections” (THE TRUSTEES OF INDIANA UNIVERSITY, priority 2020, dated 2026)
Like-named read-outs stand apart in the source and are kept apart here.

Experiments:
E6 WT/E6AP [1] = biological target: T1, E6 WT/E6AP (Human papillomavirus type 16, UniProt P03126); assay: biochemical; format: binding; settings: WT 16E6
E6 Cys51Ser mutant = E6 Cys51Ser mutant (Human papillomavirus type 16, UniProt P03126, C58S); assay: Whole protein ESI mass spectrometry, adduct with E6 Cys51Ser mutant; format: binding, HPV-16; settings: 100 μM for 16 hr at 4° C., FIG. 1A bottom
wild-type E6 = wild-type E6 (Human papillomavirus type 16, UniProt P03126); format: binding; settings: 100 μM for 16 hr at 4° C., FIG. 1A top
E6C51S/E6AP [2] = biological target: T2, E6C51S/E6AP (Human papillomavirus type 16, UniProt P03126, C58S); assay: BLI binding assay, E6 C51S binding to captured E6AP; parameters: species or system HPV-16; settings: for BLI maximal Inhibition (max %) E6C51S/E6AP: at 24 h, E6 C51S
E6C51S/E6AP [3] = biological target: T2, E6C51S/E6AP; assay: E6/E6AP binding assay (amylose-bound MBP-16E6, E6AP-BAP activity), C51S 16E6; parameters: species or system HPV-16
E6 WT/E6AP [4] = biological target: T1, E6 WT/E6AP; assay: biochemical; format: binding; settings: for Emax: at 24 h, E6 WT, read-out: BLI maximal Inhibition (max %) E6 WT/E6AP
RPE-1 cells = assay: Colony formation, crystal violet absorbance at 590 nm; format: cell-based; settings: RPE-1 cells (no HPV), 14 days, normalized to DMSO, FIG. 6
Procedure: FIG. 6 depicts colony formation capabilities of SiHa, CaSki or RPE-1 cells in the presence of the indicated concentrations of EIN-166. Fifty cells were seeded and incubated with DMSO or EIN-166. After 14 days, cells were fixed and stained with crystal violet. Stained colonies were dissolved and absorbance at 590 nm was measured. Treatments were normalized to DMSO. Data expressed as S.E.M and *P<0.05 (n=3).

E6 WT/E6AP [5] = biological target: T1, E6 WT/E6AP; assay: biochemical; format: binding; settings: for Emax: 24 h, read-out: FP maximal inhibition (max %) E6 WT/E6AP
E6C51S/E6AP [6] = biological target: T2, E6C51S/E6AP; assay: Fluorescence Polarization (FP) assay, MBP-E6 C51S with labeled peptide; format: binding, HPV-16; settings: at 24 h

T2 sequence (P03126 whole entry C58S, looked up): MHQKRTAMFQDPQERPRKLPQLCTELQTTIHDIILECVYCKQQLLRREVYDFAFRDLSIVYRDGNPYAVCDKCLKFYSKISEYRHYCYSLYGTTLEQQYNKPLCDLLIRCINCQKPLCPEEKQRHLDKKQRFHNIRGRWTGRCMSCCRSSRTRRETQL
T1 sequence (P03126 8-158): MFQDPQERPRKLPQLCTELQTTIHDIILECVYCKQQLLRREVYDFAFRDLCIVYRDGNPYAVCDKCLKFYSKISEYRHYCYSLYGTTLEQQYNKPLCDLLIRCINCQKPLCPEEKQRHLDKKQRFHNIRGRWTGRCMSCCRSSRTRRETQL
Sequence of E6 Cys51Ser mutant (P03126 8-158 C58S): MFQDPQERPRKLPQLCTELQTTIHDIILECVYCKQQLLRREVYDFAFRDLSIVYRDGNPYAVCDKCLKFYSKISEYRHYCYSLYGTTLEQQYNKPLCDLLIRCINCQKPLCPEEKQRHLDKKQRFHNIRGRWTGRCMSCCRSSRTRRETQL
Sequence of wild-type E6 (P03126 8-158): as the sequence (P03126 8-158) above

SMILES	inhibition at 10 µM (E6 WT/E6AP [1]; 10 μM compound)	inhibition at 100 µM (E6 WT/E6AP [1]; 100 μM compound)	adduct formation with E6 Cys51Ser mutant (E6 Cys51Ser mutant)	adduct formation with wild-type E6 (wild-type E6)	loss of ability to inhibit mutant form E6-Cys51Ser (BLI), in words (E6C51S/E6AP [2]; FIG. 1B, E6-Cys51Ser)	BLI maximal Inhibition (max %) E6C51S/E6AP (E6C51S/E6AP [2])	% Inhibition @ 10 μM E6C51S/E6AP (E6C51S/E6AP [3]; 10 μM compound)	% Inhibition @ 100 μM E6C51S/E6AP (E6C51S/E6AP [3]; 100 μM compound)	inhibition of E6 binding to E6AP (BLI), in words (E6 WT/E6AP [4]; E6 WT with increasing concentration of compound)	Emax (E6 WT/E6AP [4])	colony formation capability (RPE-1 cells)	Emax (E6 WT/E6AP [5])	IC50 (E6 WT/E6AP [5]; FP IC50 at 24 h (μM) E6 WT/E6AP)	FP maximal inhibition (max %) E6C51S/E6AP (E6C51S/E6AP [6])
Cc1ccccc1C1c2ccsc2CCN1CC(=O)N1CCCN(C(=O)CCl)CC1 (centres unmarked) [EIN-116, 2-chloro-1-(4-(2-(4-(o-tolyl)-6,7-dihydrothieno[3,2-c]pyridin-5(4H)-yl)acetyl)-1,4-diazepan-1-yl)ethan-1-one]	29 ± 8%	74 ± 3%	not with E6 Cys51Ser mutant	formed an adduct	partly	(max 100%)	5 ± 5%	36 ± 11%	inhibited E6 binding to E6AP in a concentration-dependent manner	100%	–	–	–	–
C=CC(=O)N1CCN(C(=O)CN2CCc3ccccc3C2c2ccccc2C)CC1 (centres unmarked) [EIN-166, 1-(4-(2-(1-(o-tolyl)-3,4-dihydroisoquinolin-2(1H)-yl)acetyl)piperazin-1-yl)prop-2-en-1-one]	–	–	–	–	–	–	–	–	–	–	no significant changes	100%	73.4 ± 3.7 µM	–
C=CC(=O)N1CCN(c2nc(CCc3cccc(OC)c3)nc3sccc23)CC1 [EIN-152, 1-(4-(2-(3-methoxyphenethyl)thieno[2,3-d]pyrimidin-4-yl)piperazin-1-yl)prop-2-en-1-one]	–	–	–	–	–	(max 60%)	–	–	–	100%	–	98%	–	(max 100%)
